In ChEMBL document CHEMBL1909046, “DrugMatrix in vitro pharmacology data” one finds IC50 and Ki data, which are given here for eleven molecules.

A word on the IC50: it is the concentration needed to halve the response being measured. As a reminder, the Ki is the dissociation constant of the complex between target and ligand, obtained from inhibition or displacement.

Assay [1] can be described thus: DRUGMATRIX: beta-Lactamase enzyme inhibition (substrate: Nitrocefin). Details: species or system Bacillus cereus. Particulars: Not Active = under 50% inhibition at 10 µM.
The target of assay [2] is T1, Neuropeptide Y receptor type 1 (Homo sapiens, UniProt P25929). Note: in other assays of this panel Not Active means under 50% inhibition at 10 µM.
T1 sequence (P25929 whole entry): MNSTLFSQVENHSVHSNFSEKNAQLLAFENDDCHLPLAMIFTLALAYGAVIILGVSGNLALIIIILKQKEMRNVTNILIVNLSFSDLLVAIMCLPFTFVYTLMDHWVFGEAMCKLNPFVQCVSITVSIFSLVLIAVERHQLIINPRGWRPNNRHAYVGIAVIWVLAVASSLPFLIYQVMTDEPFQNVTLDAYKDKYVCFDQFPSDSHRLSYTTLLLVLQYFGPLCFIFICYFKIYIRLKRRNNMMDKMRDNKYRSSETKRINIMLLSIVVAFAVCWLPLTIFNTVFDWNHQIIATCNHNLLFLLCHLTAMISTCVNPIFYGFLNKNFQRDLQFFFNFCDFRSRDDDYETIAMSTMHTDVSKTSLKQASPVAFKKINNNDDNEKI
Format: cell membranes, Membrane. Particulars: sk-n-mc.

The target in the next assay is T2, Cathepsin G (Homo sapiens, UniProt P08311).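 Note: inhibition of Cathepsin G enzyme activity, tested on an AMC-conjugated peptide substrate; in other assays of this panel Not Active means under 50% inhibition at 10 µM.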
T2 sequence (P08311 whole entry): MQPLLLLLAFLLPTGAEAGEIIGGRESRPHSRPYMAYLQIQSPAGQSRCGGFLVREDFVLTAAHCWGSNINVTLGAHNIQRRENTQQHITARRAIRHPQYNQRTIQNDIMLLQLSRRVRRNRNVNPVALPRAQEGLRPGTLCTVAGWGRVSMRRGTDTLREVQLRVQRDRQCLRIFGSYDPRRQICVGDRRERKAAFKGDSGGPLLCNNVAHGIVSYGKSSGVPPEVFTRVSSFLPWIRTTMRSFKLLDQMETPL
The format is tissue-based. Particulars: neutrophil.

Assay [3] addresses Sodium-dependent dopamine transporter (Homo sapiens, UniProt Q01959). As to the kind of experiment: DRUGMATRIX: Dopamine Transporter radioligand binding (ligand: [125I] RTI-55). Format: cell membranes, CHO-K1, Membrane. Particulars: Not Active = under 50% inhibition at 10 µM.
Assay [4] in a line: DRUGMATRIX: Serotonin (5-Hydroxytryptamine) 5-HT3 radioligand binding (ligand: [3H] GR-65630). Format: cell membranes, Membrane. The note with it: hek293; Not Active = under 50% inhibition at 10 µM.
Assay [5] addresses T3, Alpha-1A adrenergic receptor (Rattus norvegicus, UniProt P43140).
T3 sequence (P43140 whole entry): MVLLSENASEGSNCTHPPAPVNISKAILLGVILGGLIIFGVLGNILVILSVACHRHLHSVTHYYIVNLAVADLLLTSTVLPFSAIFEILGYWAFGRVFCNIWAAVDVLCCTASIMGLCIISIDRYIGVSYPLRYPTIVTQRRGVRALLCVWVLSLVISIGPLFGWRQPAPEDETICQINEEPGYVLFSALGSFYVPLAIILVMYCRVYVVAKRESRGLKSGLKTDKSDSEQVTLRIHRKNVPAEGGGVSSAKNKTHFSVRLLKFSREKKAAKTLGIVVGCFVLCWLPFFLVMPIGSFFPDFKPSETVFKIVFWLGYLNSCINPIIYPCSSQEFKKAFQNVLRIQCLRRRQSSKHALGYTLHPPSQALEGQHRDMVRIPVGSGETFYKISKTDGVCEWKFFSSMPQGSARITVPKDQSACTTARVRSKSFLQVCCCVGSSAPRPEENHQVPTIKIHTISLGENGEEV
As to the kind of experiment: DRUGMATRIX: Alpha-1A adrenergic receptor radioligand binding (ligand: prazosin). Format: cell membranes, Wistar, Submaxillary gland, Membrane. The note with it: Not Active = under 50% inhibition at 10 µM.

In assay [6] the target is T4, Alpha-1B adrenergic receptor (Rattus norvegicus, UniProt P15823).
T4 sequence (P15823 whole entry): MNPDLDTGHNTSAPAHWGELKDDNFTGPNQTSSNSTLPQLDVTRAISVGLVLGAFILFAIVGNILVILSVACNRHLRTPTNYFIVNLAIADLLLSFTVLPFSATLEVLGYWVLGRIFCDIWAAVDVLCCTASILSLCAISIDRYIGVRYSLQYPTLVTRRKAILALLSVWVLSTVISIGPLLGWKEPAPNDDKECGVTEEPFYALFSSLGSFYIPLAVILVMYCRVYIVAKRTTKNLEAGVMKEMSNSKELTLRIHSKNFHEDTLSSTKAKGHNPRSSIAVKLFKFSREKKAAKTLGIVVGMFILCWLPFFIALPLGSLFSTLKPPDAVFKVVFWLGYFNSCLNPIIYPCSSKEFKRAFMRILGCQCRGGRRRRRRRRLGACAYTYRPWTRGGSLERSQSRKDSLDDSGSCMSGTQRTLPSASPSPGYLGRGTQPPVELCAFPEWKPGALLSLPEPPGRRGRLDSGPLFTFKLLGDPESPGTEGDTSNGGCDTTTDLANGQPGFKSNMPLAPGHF
As to the kind of experiment: DRUGMATRIX: Alpha-1B adrenergic receptor radioligand binding (ligand: prazosin). Format: cell membranes, Wistar, Liver, Membrane. Particulars: Not Active = under 50% inhibition at 10 µM.

The target of a further assay is Carbonic anhydrase 2 (Homo sapiens, UniProt P00918). As to the kind of experiment: DRUGMATRIX: Carbonic Anhydrase II enzyme inhibition (substrate: 4-Nitrophenyl acetate (4-NPA)). The format is tissue-based, Erythrocyte. The note with it: erythrocyte; Not Active = under 50% inhibition at 10 µM.
Assay [7] deals with T5, Type-2 angiotensin II receptor (Homo sapiens, UniProt P50052).
T5 sequence (P50052 whole entry): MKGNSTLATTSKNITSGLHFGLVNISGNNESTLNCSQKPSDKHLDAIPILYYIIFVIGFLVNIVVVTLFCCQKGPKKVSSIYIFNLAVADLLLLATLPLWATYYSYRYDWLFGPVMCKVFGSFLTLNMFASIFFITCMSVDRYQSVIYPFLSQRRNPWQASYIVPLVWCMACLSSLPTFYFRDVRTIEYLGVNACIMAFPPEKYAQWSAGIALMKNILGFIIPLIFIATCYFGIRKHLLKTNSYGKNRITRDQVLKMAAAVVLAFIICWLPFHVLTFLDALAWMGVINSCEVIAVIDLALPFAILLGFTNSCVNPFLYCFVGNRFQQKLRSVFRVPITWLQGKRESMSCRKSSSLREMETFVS
The format is cell-based. Particulars: cho-k1.

Chain of Sodium-dependent dopamine transporter (Q01959 whole entry): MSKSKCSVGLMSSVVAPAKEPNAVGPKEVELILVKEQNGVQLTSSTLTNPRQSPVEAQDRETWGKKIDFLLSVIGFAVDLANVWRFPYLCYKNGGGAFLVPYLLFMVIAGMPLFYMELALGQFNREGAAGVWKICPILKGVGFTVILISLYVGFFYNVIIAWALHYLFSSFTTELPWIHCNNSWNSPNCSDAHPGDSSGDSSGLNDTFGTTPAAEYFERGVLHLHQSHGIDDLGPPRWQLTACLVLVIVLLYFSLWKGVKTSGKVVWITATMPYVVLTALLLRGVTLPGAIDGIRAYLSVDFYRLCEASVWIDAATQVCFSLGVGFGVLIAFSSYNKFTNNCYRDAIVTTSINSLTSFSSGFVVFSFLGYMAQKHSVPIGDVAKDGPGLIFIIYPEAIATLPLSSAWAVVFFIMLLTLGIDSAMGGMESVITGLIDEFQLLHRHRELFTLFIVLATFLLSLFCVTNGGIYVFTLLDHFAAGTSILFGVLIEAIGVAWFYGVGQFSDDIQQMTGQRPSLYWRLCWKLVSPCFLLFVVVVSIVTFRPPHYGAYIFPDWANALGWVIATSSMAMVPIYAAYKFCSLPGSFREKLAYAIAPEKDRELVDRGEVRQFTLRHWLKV

For `COCCOC(=O)C1=C(C)NC(C)=C(C(=O)OC(C)C)C1c1cccc([N+](=O)[O-])c1` (stereo unspecified) [NIMODIPINE], the IC50 entry (in assay [1]; in assay [2]; at Cathepsin G; in assay [3] (cho-k1); in [4]; in assay [5]) was “Not Active” in each case. Also, the IC50 result (in assay [6]; against Carbonic anhydrase 2; in [7]) was “Not Active” each time. In addition, the Ki result in assay [1] and in assay [4] was “Not Active” throughout.
With `COCCCOc1ccnc(C[S+]([O-])c2nc3ccccc3[nH]2)c1C` (stereo unspecified) [RABEPRAZOLE], the IC50 entry (in assay [1]; in assay [2]; against Cathepsin G; in assay [3] (cho-k1); in assay [4]; in [5]) was “Not Active” throughout. Besides, the IC50 entry (in assay [6]; against Carbonic anhydrase 2; in [7]) was “Not Active” in each case. The Ki result in [1] and in assay [4] was “Not Active” in each case.
As to `CNC(=C[N+](=O)[O-])NCCSCc1ccc(CN(C)C)o1` [RANITIDINE], the IC50 result (in [1]; in assay [2]; against Cathepsin G; in [3] (cho-k1); in [4]; in assay [5]) was “Not Active” each time. The IC50 entry (in [6]; at Carbonic anhydrase 2; in [7]) was “Not Active” in each case. The Ki result in [1] and in assay [4] was “Not Active” each time.
Take `CO[C@H]1/C=C/O[C@@]2(C)Oc3c(C)c(O)c4c(c3C2=O)C2=NC3(CCN(CC(C)C)CC3)NC2=C(NC(=O)/C(C)=C\C=C\[C@H](C)[C@H](O)[C@@H](C)[C@@H](O)[C@@H](C)[C@H](OC(C)=O)[C@@H]1C)C4=O` [RIFABUTIN]: the IC50 result (in assay [1]; in [2]; against Cathepsin G; in assay [3] (cho-k1); in assay [4]; in assay [5]) was “Not Active” in each case. In addition, the IC50 result (in [6]; against Carbonic anhydrase 2; in assay [7]) was “Not Active” in each case. The Ki entry in [1] and in [4] was “Not Active” in each case.
For the molecule `CC(C)c1nc(CN(C)C(=O)N[C@H](C(=O)N[C@@H](Cc2ccccc2)C[C@H](O)[C@H](Cc2ccccc2)NC(=O)OCc2cncs2)C(C)C)cs1` [RITONAVIR], the IC50 entry (in [1]; in [2]; on Cathepsin G; in assay [3] (cho-k1); in [4]; in assay [5]) was “Not Active” each time. For the same molecule, the IC50 result (in assay [6]; on Carbonic anhydrase 2; in [7]) was “Not Active” throughout. The Ki entry in assay [1] and in assay [4] was “Not Active” each time.
With `CC(C)CC(N(C)C)C1(c2ccc(Cl)cc2)CCC1` (stereo unspecified) [SIBUTRAMINE], the IC50 result in [1] is “Not Active”; in assay [2], “Not Active”; against Cathepsin G it was “Not Active”; in assay [3] (read-out: IC50), 0.632 µM; in assay [4], “Not Active”; in assay [5], “Not Active”. In addition, the IC50 result (in assay [6]; against Carbonic anhydrase 2; in [7]) was “Not Active” throughout. The values for the Ki entry in assay [1], in assay [3] (read-out: Ki) and in assay [4] were “Not Active”, 0.502 µM and “Not Active”, respectively.
Consider `[H]/N=C(/N)N[C@H]1[C@H](O)[C@@H](O)[C@H](O[C@@H]2O[C@@H](C)[C@](O)(C=O)[C@H]2O[C@@H]2O[C@@H](CO)[C@H](O)[C@@H](O)[C@@H]2NC)[C@@H](N/C(N)=N\[H])[C@@H]1O` [STREPTOMYCIN], for which the IC50 entry (in assay [1]; in [2]; on Cathepsin G; in [3] (cho-k1); in [4]; in assay [5]) was “Not Active” in each case. Also, the IC50 result (in assay [6]; against Carbonic anhydrase 2; in assay [7]) was “Not Active” each time. In addition, the Ki entry in assay [1] and in assay [4] was “Not Active” in each case.
With `COc1cc(NS(=O)(=O)c2ccc(N)cc2)nc(OC)n1` [SULFADIMETHOXINE], the IC50 result (in assay [1]; in [2]; on Cathepsin G; in [3] (cho-k1); in assay [4]; in assay [5]) was “Not Active” throughout. Also, the IC50 result (in [6]; against Carbonic anhydrase 2; in [7]) was “Not Active” each time. Besides, the Ki result in assay [1] and in assay [4] was “Not Active” each time.
Consider `Cc1cc(C)nc(NS(=O)(=O)c2ccc(N)cc2)n1` [SULFAMETHAZINE], for which the IC50 entry (in [1]; in [2]; against Cathepsin G; in assay [3] (cho-k1); in [4]; in assay [5]) was “Not Active” in each case. For the same molecule, the IC50 entry (in assay [6]; at Carbonic anhydrase 2; in assay [7]) was “Not Active” throughout. In addition, the Ki entry in assay [1] and in assay [4] was “Not Active” in each case.
In the case of `C[C@]1(Cn2ccnn2)[C@H](C(=O)O)N2C(=O)C[C@H]2S1(=O)=O` [TAZOBACTAM], the IC50 is 0.299 µM in assay [1] (read-out: IC50); “Not Active” in assay [2]; “Not Active” against Cathepsin G; “Not Active” in assay [3] (cho-k1); “Not Active” in assay [4]; “Not Active” in assay [5]. Moreover, the IC50 result (in [6]; on Carbonic anhydrase 2; in assay [7]) was “Not Active” in each case. The Ki result in assay [4] is given as “Not Active”.
On to `CN1C(C(=O)Nc2ccccn2)=C(O)c2sccc2S1(=O)=O` [TENOXICAM], for which the IC50 entry (in [1]; in [2]; against Cathepsin G; in assay [3] (cho-k1); in [4]; in [5]) was “Not Active” in each case. In addition, the IC50 result (in assay [6]; against Carbonic anhydrase 2; in [7]) was “Not Active” each time. Besides, the Ki result in assay [1] and in [4] was “Not Active” in each case.
